What follows are molecules tested against T1, IRAK4 (Homo sapiens, UniProt Q9NWZ3) (assay: IRAK-4 activity inhibition assay (Caliper)). Conditions: 37 μM ATP, 3.5 nM IRAK4.
T1 sequence (Q9NWZ3 1-460): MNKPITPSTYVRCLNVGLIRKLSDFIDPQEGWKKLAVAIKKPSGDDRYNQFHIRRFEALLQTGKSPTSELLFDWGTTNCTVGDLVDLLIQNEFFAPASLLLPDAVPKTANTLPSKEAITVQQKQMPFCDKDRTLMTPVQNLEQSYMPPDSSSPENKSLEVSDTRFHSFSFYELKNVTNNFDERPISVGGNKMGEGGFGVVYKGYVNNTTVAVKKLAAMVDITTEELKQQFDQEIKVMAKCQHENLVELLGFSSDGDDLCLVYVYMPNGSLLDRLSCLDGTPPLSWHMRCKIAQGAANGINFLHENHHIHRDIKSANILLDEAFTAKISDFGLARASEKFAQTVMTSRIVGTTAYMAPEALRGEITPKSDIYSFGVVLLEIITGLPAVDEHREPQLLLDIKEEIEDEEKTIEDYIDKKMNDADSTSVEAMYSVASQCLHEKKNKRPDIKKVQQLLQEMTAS
Type: biochemical
Protocol: A 1× kinase base buffer was prepared from 50 mM HEPES, pH 7.5 and 0.0015% Brij-35. A stop buffer was prepared from 100 mM HEPES, pH 7.5, 0.015% Brij-35, 0.2% Coating Reagent #3, and 50 mM EDTA.
Test compound was diluted to 50× of the final desired highest inhibitor concentration in reaction by 100% DMSO. 100 μl of this compound dilution was transferred to a well in a 96-well plate.
Test compound was serially diluted by transferring 30 μl to 60 μl of 100% DMSO in the next well and so forth for a total of 10 concentrations. 100 μl of 100% DMSO was added to two empty wells for no compound control and no enzyme control in the same 96-well plate.
A new 96-well plate was marked as intermediate plate. 5 μl of compound serial dilution was transferred from source plate to the corresponding wells of the intermediate plate. 45 μl of 1× kinase base buffer (KB buffer) was added to each well of the intermediate plate. The intermediate plate was placed for 10 min on a shaker.
5 μl of each well was transferred from the 96-well intermediate plate to a 384-well plate in duplicates. […] A2 of the 96-well plate is transferred to A3 and A4 of the 384-well plate, and so on.
IRAK4 and DTT in 1× kinase base buffer was added.
Assay plate already contained 5 μl of compound in 10% DMSO. Added 10 μl of 2.5× enzyme solution to each well of the 384-well assay plate, except no enzyme control wells. […] Added 10 μl of 1× kinase base buffer to no enzyme control wells in the assay plate. Incubated at room temperature for 10 min.
Added 10 μl of 2.5× peptide solution to each well of the 384-well assay plate. […] Incubated at 28° C. for 40 minutes. Added 25 μl of stop buffer to stop reaction. Collected data on Caliper.
Copied conversion % data from Caliper program. Converted conversion % values to percent inhibition values. Percent inhibition=(max−conversion %)/(max−min)*100, where “max” means the conversion % of DMSO control and “min” means the conversion % of no enzyme control.
The compound numbers correspond to the compound numbers in Table 1. […] “NA” stands for “not assayed.”

IC50 | Compound
5 to 20 µM | CN(C)[C@H]1CC[C@H](Nc2ncnc3sc4c(c23)C(CC(=O)O)CC4)CC1 (stereo partly drawn) [Compound I-18]
< 5 µM | CN(C)[C@H]1CC[C@H](Oc2ncnc3sc4c(c23)[C@@H](CO)CC4)CC1 [Compound I-19, ((R)-4-(((1r,4R)-4-(dimethylamino)cyclohexyl)oxy)-6,7-dihydro-5H-cyclopenta[4,5]thieno[2,3-d]pyrimidin-5-yl)methanol]
< 5 µM | CN(C)[C@H]1CC[C@H](Oc2ncnc3sc4c(c23)[C@H](CO)CC4)CC1 [Compound I-20, ((S)-4-(((1r,4S)-4-(dimethylamino)cyclohexyl)oxy)-6,7-dihydro-5H-cyclopenta[4,5]thieno[2,3-d]pyrimidin-5-yl)methanol]
< 5 µM | CN(C)[C@H]1CC[C@H](Oc2ncnc3sc4c(c23)C(CCO)CC4)CC1 (stereo partly drawn) [Compound I-21, 2-(4-(((1r,4r)-4-(dimethylamino)cyclohexyl)oxy)-6,7-dihydro-5H-cyclopenta[4,5]thieno[2,3-d]pyrimidin-5-yl)ethanol]
5 to 20 µM | CN(C)[C@H]1CC[C@H](Oc2ncnc3sc4c(c23)C(CC#N)CC4)CC1 (stereo partly drawn) [Compound I-22, 2-(12-[[4-(dimethylamino)cyclohexyl]oxy]-7-thia-9,11-diazatricyclo[6.4.0.0[2,6]]dodeca-1(8),2(6),9,11-tetraen-3-yl)acetonitrile]
5 to 20 µM | CCNC(=O)CC1CCc2sc3ncnc(N[C@H]4CC[C@H](N(C)C)CC4)c3c21 (stereo partly drawn) [Compound I-23, 2-(12-[[4-(dimethylamino)cyclohexyl]amino]-7-thia-9,11-diazatricyclo[6.4.0.0̂[2,6]]dodeca-1(8),2(6),9,11-tetraen-3-yl)-N-ethylacetamide]
20 to 50 µM | CN(C)[C@H]1CC[C@H](Nc2ncnc3sc4c(c23)C(C(=O)NCc2ccccc2)CC4)CC1 (stereo partly drawn) [Compound I-24, N-benzyl-12-[[4-(dimethylamino)cyclohexyl]amino]-7-thia-9,11-diazatricyclo[6.4.0.0̂[2,6]]dodeca-1(12),2(6),8,10-tetraene-3-carboxamide]
20 to 50 µM | CN(C)[C@H]1CC[C@H](Nc2ncnc3sc4c(c23)C(C(=O)NCc2cccnc2)CC4)CC1 (stereo partly drawn) [Compound I-25, 12-[[4-(dimethylamino)cyclohexyl]amino]-N-(pyridin-3-ylmethyl)-7-thia-9,11-diazatricyclo[6.4.0.0̂[2,6]]dodeca-1(12),2(6),8,10-tetraene-3-carboxamide]
5 to 20 µM | CN(C)[C@H]1CC[C@H](Nc2ncnc3sc4c(c23)C(CC(=O)NCCO)CC4)CC1 (stereo partly drawn) [Compound I-26, 2-(12-[[4-(dimethylamino)cyclohexyl]amino]-7-thia-9,11-diazatricyclo[6.4.0.0̂[2,6]]dodeca-1(8),2(6),9,11-tetraen-3-yl)-N-(2-hydroxyethyl)acetamide]
20 to 50 µM | CN(C)[C@H]1CC[C@H](Nc2ncnc3sc4c(c23)C(C(=O)NCCCO)CC4)CC1 (stereo partly drawn) [Compound I-28, 12-[[4-(dimethylamino)cyclohexyl]amino]-N-(3-hydroxypropyl)-7-thia-9,11-diazatricyclo[6.4.0.0̂[2,6]]dodeca-1(12),2(6),8,10-tetraene-3-carboxamide]
> 50 µM | CN(CCO)C(=O)C1CCc2sc3ncnc(N[C@H]4CC[C@H](N(C)C)CC4)c3c21 (stereo partly drawn) [Compound I-29, 12-[[4-(dimethylamino)cyclohexyl]amino]-N-(2-hydroxyethyl)-N-methyl-7-thia-9,11-diazatricyclo[6.4.0.0̂[2,6]]dodeca-1(12),2(6),8,10-tetraene-3-carboxamide]
20 to 50 µM | CN(CCO)C(=O)CC1CCc2sc3ncnc(N[C@H]4CC[C@H](N(C)C)CC4)c3c21 (stereo partly drawn) [Compound I-30, 2-(12-[[4-(dimethylamino)cyclohexyl]amino]-7-thia-9,11-diazatricyclo[6.4.0.0̂[2,6]]dodeca-1(8),2(6),9,11-tetraen-3-yl)-N-(2-hydroxyethyl)-N-methylacetamide]
5 to 20 µM | CCOCCC1CCc2sc3ncnc(O[C@H]4CC[C@H](N(C)C)CC4)c3c21 (stereo partly drawn) [Compound I-31, 4-[[3-(2-ethoxyethyl)-7-thia-9,11-diazatricyclo[6.4.0.0[2,6]]dodeca-1(8),2(6),9,11-tetraen-12-yl]oxy]-N,N-dimethylcyclohexan-1-amine]
< 5 µM | COCCC1CCc2sc3ncnc(O[C@H]4CC[C@H](N(C)C)CC4)c3c21 (stereo partly drawn) [Compound I-32, 4-[[3-(2-methoxyethyl)-7-thia-9,11-diazatricyclo[6.4.0.0[2,6]]dodeca-1(8),2(6),9,11-tetraen-12-yl]oxy]-N,N-dimethylcyclohexan-1-amine]
< 5 µM | CN(C)[C@H]1CC[C@H](Oc2ncnc3sc4c(c23)[C@H](CCO)CC4)CC1 [Compound I-33, 2-[(3S)-12-[[4-(dimethylamino)cyclohexyl]oxy]-7-thia-9,11-diazatricyclo[6.4.0.0[2,6]]dodeca-1(12),2(6),8,10-tetraen-3-yl]ethan-1-ol]
> 50 µM | CCNC(=O)C[C@@H]1CCc2sc3ncnc(O[C@H]4CC[C@H](N(C)C)CC4)c3c21 [Compound I-36, 2-[(3S)-12-[[4-(dimethylamino)cyclohexyl]oxy]-7-thia-9,11-diazatricyclo[6.4.0.0[2,6]]dodeca-1(12),2(6),8,10-tetraen-3-yl]-N-ethylacetamide]
< 5 µM | CN(C)[C@H]1CC[C@H](Oc2ncnc3sc4c(c23)[C@@H](CC(=O)Nc2ccc(F)cn2)CC4)CC1 [Compound I-37, 2-[(3R)-12-[[4-(dimethylamino)cyclohexyl]oxy]-7-thia-9,11-diazatricyclo[6.4.0.0[2,6]]-dodeca-1(8),2(6),9,11-tetraen-3-yl]-N-(5-fluoropyridin-2-yl)acetamide]
20 to 50 µM | CN(C)[C@H]1CC[C@H](Oc2ncnc3sc4c(c23)[C@H](CC(=O)Nc2ccc(F)cn2)CC4)CC1 [Compound I-38, 2-[(3S)-12-[[4-(dimethylamino)cyclohexyl]oxy]-7-thia-9,11-diazatricyclo[6.4.0.0[2,6]]dodeca-1(8),2(6),9,11-tetraen-3-yl]-N-(5-fluoropyridin-2-yl)acetamide]
< 5 µM | CCSCC1CCc2sc3ncnc(O[C@H]4CC[C@H](N(C)C)CC4)c3c21 (stereo partly drawn) [Compound I-39, 4-([3-[(ethylsulfanyl)methyl]-7-thia-9,11-diazatricyclo[6.4.0.0[2,6]]dodeca-1(12),2(6),8,10-tetraen-12-yl]oxy)-N,N-dimethylcyclohexan-1-amine]
< 5 µM | C[C@@H](O)C[C@H]1CCc2sc3ncnc(O[C@H]4CC[C@H](N(C)C)CC4)c3c21 [Compound I-41, (2R)-1-[(3R)-12-[[4-(dimethylamino)cyclohexyl]oxy]-7-thia-9,11-diazatricyclo[6.4.0.0[2,6]]dodeca-1(8),2(6),9,11-tetraen-3-yl]propan-2-ol]
< 5 µM | CCS(=O)(=O)CC1CCc2sc3ncnc(O[C@H]4CC[C@H](N(C)C)CC4)c3c21 (stereo partly drawn) [Compound I-47, 4-([3-[(ethanesulfonyl)methyl]-7-thia-9,11-diazatricyclo[6.4.0.0[2,6]]dodeca-1(12),2(6),8,10-tetraen-12-yl]oxy)-N,N-dimethylcyclohexan-1-amine]
< 5 µM | C#CCOC[C@@H]1CCc2sc3ncnc(O[C@H]4CC[C@H](N(C)C)CC4)c3c21 [Compound I-48, N,N-dimethyl-4-[[(3R)-3-[(prop-2-yn-1-yloxy)methyl]-7-thia-9,11-diazatricyclo[6.4.0.0[2,6]]dodeca-1(8),2(6),9,11-tetraen-12-yl]oxy]cyclohexan-1-amine]
< 5 µM | C#CCOC[C@H]1CCc2sc3ncnc(O[C@H]4CC[C@H](N(C)C)CC4)c3c21 [Compound I-49, N,N-dimethyl-4-[[(3S)-3-[(prop-2-yn-1-yloxy)methyl]-7-thia-9,11-diazatricyclo[6.4.0.0[2,6]]dodeca-1(8),2(6),9,11-tetraen-12-yl]oxy]cyclohexan-1-amine]
5 to 20 µM | CCC(O)[C@H]1CCc2sc3ncnc(O[C@H]4CC[C@H](N(C)C)CC4)c3c21 (stereo partly drawn) [Compound I-50, (S)-1-((S)-4-(((1r,4S)-4-(dimethylamino)cyclohexyl)oxy)-6,7-dihydro-5H-cyclopenta[4,5]thieno[2,3-d]pyrimidin-5-yl)propan-1-ol]
